Reference: the supplement of paper PMC10307832

Assays:
Experiment in all cases: relative viability (nuclei count vs DMSO), 5 days (fraction); higher = more cells survive
[1] = compound: C1=CC=C(C(=C1)C2=CC=C(C=C2)C3=CSC4=C3C(=C(C(=O)N4)C#N)O)O + CC(=O)Nc1cccc(-n2c(=O)n(C3CC3)c(=O)c3c(Nc4ccc(I)cc4F)n(C)c(=O)c(C)c32)c1 [Trametinib] (partner 0.02 µM)
Procedure, shortened: (§1)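 Relative viability is defined as nuclei in treated wells over nuclei in vehicle wells. Duplicate plates were run and medians reported. Lung cancer cell lines in 1536-well plates were dosed by pin tool one day after seeding, with one drug or with a fixed anchor-drug dose plus five library-drug doses (not always all listed) in √10 steps, and nuclei were counted after 5 days.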

[2] = compound: C1=CC=C(C(=C1)C2=CC=C(C=C2)C3=CSC4=C3C(=C(C(=O)N4)C#N)O)O + C[C@@H](Oc1cc(-c2cnn(C3CCNCC3)c2)cnc1N)c1c(Cl)ccc(F)c1Cl [Crizotinib] (partner 1 µM)
Procedure, shortened: as §1

TGX 221 + Pictilisib = compound: CC1=CN2C(=O)C=C(N=C2C(=C1)C(C)NC3=CC=CC=C3)N4CCOCC4 [TGX 221] + CS(=O)(=O)N1CCN(Cc2cc3nc(-c4cccc5[nH]ncc45)nc(N4CCOCC4)c3s2)CC1 [Pictilisib] (partner 1 µM)
Procedure, shortened: as §1

TGX 221 + Phenformin = compound: CC1=CN2C(=O)C=C(N=C2C(=C1)C(C)NC3=CC=CC=C3)N4CCOCC4 [TGX 221] + N=C(N)NC(=N)NCCc1ccccc1 [Phenformin] (partner 250 µM)
Procedure, shortened: as §1

[3] = compound: O=C(CCCCCCNC(=O)c1cnc(N(c2ccccc2)c2ccccc2)nc1)NO [Ricolinostat] + C[C@]1(O)C[C@@H](c2nc(-c3ccc4ccc(-c5ccccc5)nc4c3)c3c(N)nccn32)C1 [Linsitinib] (partner 1 µM)
Procedure, shortened: as §1

With NCI-H1792 the relative viability ([1]; first compound 0.253 µM) was 0.536, the relative viability ([1]; first compound 0.8 µM) was 0.424 and the relative viability ([1]; first compound 2.53 µM) was 0.364. For the same cell line, the relative viability ([1]; first compound 8 µM) was 0.165, the relative viability ([2]; first compound 0.253 µM) was 0.915 and the relative viability ([2]; first compound 0.8 µM) was 1.15. For the same cell line, the relative viability ([2]; first compound 2.53 µM) was 1.13, the relative viability ([2]; first compound 8 µM) was 0.43 and the relative viability (TGX 221 + Pictilisib; first compound 0.08 µM) was 0.29. The relative viability (TGX 221 + Pictilisib; first compound 0.253 µM) was 0.281, the relative viability (TGX 221 + Pictilisib; first compound 0.8 µM) was 0.294 and the relative viability (TGX 221 + Pictilisib; first compound 2.53 µM) was 0.246. It also gave a relative viability (TGX 221 + Pictilisib; first compound 8 µM) of 0.228, a relative viability (TGX 221 + Phenformin; first compound 0.8 µM) of 0.249 and a relative viability (TGX 221 + Phenformin; first compound 2.53 µM) of 0.319. For the same cell line, the relative viability (TGX 221 + Phenformin; first compound 8 µM) was 0.283, the relative viability ([3]; first compound 0.08 µM) was 0.438 and the relative viability ([3]; first compound 0.253 µM) was 0.545. The relative viability ([3]; first compound 0.8 µM) was 0.43 and the relative viability ([3]; first compound 2.53 µM) was 0.428.
